Our source for the Activity and GI50 values is ChEMBL document CHEMBL1146540, “Bioactive constituents from three Vismia species” (2003).

Holding throughout (format): functional
In assay [1] the test system is SF-268. Kind of assay: Cytotoxicity against human SF268 cells.
Assay [2] concerns NCI-H460. Nature of the assay: Cytotoxicity against human H460 cells.
In assay [3] the test system is MCF7. Nature of the assay: Cytotoxicity against human MCF7 cells.

SMILES strings stand for the structures. In brackets after ≈: the same amount, converted by molar mass. Activity calls are given as the source filed them. The calls are words filed in the database; no cut-off is given here.

In the case of `COc1cc2c(c(O)c1/C=C/C(C)C)C(=O)c1c(O)cc(C)cc1C2=O`, the outcome in assay [1], in assay [2] and in assay [3] was inactive.

Regarding `COc1cc2c(c(O)c1/C=C/C(C)C)C(=O)c1c(O)cc(C)cc1C2C1c2cc(C)cc(O)c2C(=O)c2c1cc(OC)c(/C=C/C(C)C)c2O` (stereo not given), the result in assay [1], in assay [2] and in assay [3] was inactive.

`CC(C)=CCc1c(C)cc(O)c2c(O)c3c(cc12)C(CC=C(C)C)(CC=C(C)C)C(O)=CC3=O` [HARUNGANIN]: the GI50 was found to be 6 µg/mL (≈ 13 µM) in assay [1], 6.4 µg/mL (≈ 13.9 µM) in assay [2] and 6 µg/mL (≈ 13 µM) in assay [3].

Regarding `CC(C)=CCC1=C(O)C(CC=C(C)C)(CC=C(C)C)c2cc3c(CC=C(C)C)c(C)cc(O)c3c(O)c2C1=O` [FERRUGININ C], the GI50 came out at 4 µg/mL (≈ 7.57 µM) in assay [1], 5.4 µg/mL (≈ 10.2 µM) in assay [2] and 4.8 µg/mL (≈ 9.08 µM) in assay [3].

As to `CC(C)=CCOc1cc(O)c2c(O)c3c(cc2c1)CC(C)(O)CC3=O` (stereo not given) [DEACETYLVISMIONE H], the values for the concentration for 50% growth inhibition (GI50) in assay [1], in assay [2] and in assay [3] were 0.6 µg/mL (≈ 1.75 µM), 0.6 µg/mL (≈ 1.75 µM) and 0.4 µg/mL (≈ 1.17 µM), respectively.

Take `CC(C)=CCC1=C(O)C(CC=C(C)C)(CC=C(C)C)c2cc3cc(C)cc(O)c3c(O)c2C1=O` [FERRUGININ B]: the GI50 in assay [1] was determined as 4 µg/mL (≈ 8.68 µM); in assay [2], 5 µg/mL (≈ 10.9 µM); in assay [3], 5 µg/mL (≈ 10.9 µM).

As for `CC(C)=CCC1(CC=C(C)C)C(O)=CC(=O)c2c1cc1cc(C)cc(O)c1c2O` [VISMIN], the figures for the GI50 in assay [1], in assay [2] and in assay [3] were 5.7 µg/mL (≈ 14.5 µM), 7.3 µg/mL (≈ 18.6 µM) and 5.2 µg/mL (≈ 13.2 µM), respectively.

For the compound `COc1cc2cc3c(c(O)c2c2c1C=CC(C)(C)O2)C(=O)CC(C)(O)C3` (stereo not given) [VISMIONE B], the results for the GI50 in assay [1], in assay [2] and in assay [3] were 2.5 µg/mL (≈ 7.05 µM), 2.8 µg/mL (≈ 7.9 µM) and 1.6 µg/mL (≈ 4.51 µM), respectively.

As for `COc1cc2cc3c(c(O)c2c(O)c1/C=C/C(C)C)C(=O)CC(C)(O)C3` (stereo not given) [DEACETYLVISMIONE A], the GI50 in assay [1] came to 2.2 µg/mL (≈ 6.17 µM); in assay [2], 1.9 µg/mL (≈ 5.33 µM); in assay [3] it was 1.8 µg/mL (≈ 5.05 µM).

For the compound `CC(C)=CCc1c(C)cc2cc3c(c(O)c2c1O)C(=O)C=C(O)C3(CC=C(C)C)CC=C(C)C` [FERRUGININ A], the figures for the GI50 in assay [1], in assay [2] and in assay [3] were 4.9 µg/mL (≈ 10.6 µM), 3.3 µg/mL (≈ 7.16 µM) and 5 µg/mL (≈ 10.9 µM), respectively.
